Measured values reported in patent publication US7153853B2, “Heterocyclic compounds and antitumor drugs containing the same as the active ingredient” (Zenyaku Kogyo Kabushiki Kaisha, priority 2002, dated 2006).
Read-outs that look alike come from different tables or passages of the source.

Legend:
MCF-7 cells = assay: Test 1: growth inhibition of MCF-7 human breast cancer cells; format: cell-based; details: read-out: GI50 (50% growth inhibition concentration)
Description: Used in the test were MCF-7 cells which were established from human breast cancer and were cultured routinely under the conditions of 37° C. and 5% CO2, in MEM medium supplemented with 10% fetal calf serum, 25 mM of HEPES and 0.1 mg/ml of kanamycin. The MCF-7 cells in a logarithmic growth phase were treated with trypsin/EDTA to prepare single cell suspension adjusted to 4.0×10^4 cells/ml in MEM medium (supplemented with 10% fetal calf serum, 25 mM of HEPES and 0.1 mg/ml of kanamycin). Test compounds were dissolved in DMSO and diluted with RPMI 1640 medium (supplemented with 10% fetal calf serum, 25 mM of HEPES and 0.1 mg/ml of kanamycin) to a concentration of 2.0×10^−9−2.0×10^−4 M.
The cell suspension was filled in a 96-wells microplate at a rate of 0.1 ml per well and was cultured for 24 hours so as to make the cells adhered to the microplate. Then, it was added with 0.1 ml of the sample solution and cultured at 37° C. for 72 hours in 5% CO2.
50% Growth inhibition concentrations (GI50 μM) were calculated from growth inhibitions at various sample concentrations.

[1] = tested on: human colonic cancer WiDr; assay: Test 2: human colonic cancer WiDr transplanted subcutaneously in nude mice, relative tumor growth T/C; format: in vivo, BALB/c nude mice; details: 200 mg/kg intraperitoneally, once a day, six times a week, two weeks; effective (+) = T/C less than 50% and Mann-Whitney significant at one-sided 1%
Description: Mutant BALB/c nude mice were used for routine culture of 2-mm-square piece of human colonic cancer WiDr which was transplanted subcutaneously into left breast of each of the mice. The mice were separated for testing into groups each of five mice at the time of the tumor in its logarithmic growth phase. The samples prepared by dissolving test compounds in physiological saline solution or suspending them in 1% hydroxypropyl cellulose (HPC), using an agate mortar, were intraperitoneally administered at a rate of 200 mg/kg, once a day and six times a week in total, for two weeks. Major and minor axes of the tumor mass were measured on a daily basis to calculate tumor volume. […] As a result, the compound according to the present invention was effective whereas the comparative compound A was ineffective.

[2] = Homo sapiens, MCF7, cultured 72 hours with sample

Row | GI50 (MCF-7 cells; [2]) [nM] | melting point | GI50 (MCF-7 cells; cultured 72 hours with sample) [nM] | Compound | antitumor effect judged from T/C (%) of the last day [1]
1 | 3700 | – | – | Cc1nc2ccccc2n1-c1nc(N2CCOCC2)nc(N2CCOCC2)n1 [compound B, 2-(2-methylbenzimidazol-1-yl)-4,6-dimorpholino-1,3,5-triazine, reference compound] | –
2 | > 100000 | – | – | CN(C)c1nc(N(C)C)nc(N(C)C)n1 [compound D, hexamethylmelamine, reference compound] | –
3 | 2200 | – | – | C[C@@H]1OCCN(c2cc(N3CCOCC3)nc(-n3cnc4ccccc43)n2)[C@H]1C (relative stereo) [compound A, 2-(benzimidazol-1-yl)-4-(trans-2,3-dimethylmorpholino)-6-morpholinopyrimidine, reference compound] | ineffective
4 | 80 | 238 °C (dec.) | – | CC1(C)CN(c2nc(N3CCOCC3)nc(-n3c(C(F)F)nc4c(Cl)cc(N)cc43)n2)CCO1 [compound 2, 2-(6-amino-4-chloro-2-difluoromethylbenzimidazol-1-yl)-4-(2,2-dimethylmorpholino)-6-morpholino-1,3,5-triazine] | –
5 | – | 194 °C (dec.) | – | CN1CCC(N(C)c2nc(N3CCOCC3)nc(-n3c(C(F)F)nc4c(Cl)cc(N)cc43)n2)CC1 | –
6 | – | – | 60 | OCC1CCCN1c1nc(N2CCOCC2)nc(-n2c(C(F)F)nc3c(O)cccc32)n1 (stereo not drawn) [compound 5, 2-(2-difluoromethyl-4-hydroxybenzimidazol-1-yl)-4-(2-hydroxymetylpyrrolidin-1-yl)-6-morpholino-1,3,5-triazine] | –
7 | 20000 | – | – | c1cn(-c2nc(N3CCOCC3)nc(N3CCOCC3)n2)cn1 [compound C, 2-(imidazol-1-yl)-4,6-dimorpholino-1,3,5-triazine, reference compound] | –
8 | 80 | > 250 °C | – | Oc1ccc2c(nc(C(F)F)n2-c2nc(N3CCOCC3)nc(N3CCOCC3)n2)c1Cl [compound 6, 2-(4-chloro-2-difluoromethyl-5-hydroxybenzimidazol-1-yl)-4,6-dimorpholino-1,3,5-triazine] | –
9 | 270 | 256 °C (dec.) | – | Nc1cc(Cl)c2nc(C(F)F)n(-c3nc(N4CCOCC4)nc(N4CCCC4CO)n3)c2c1 (stereo not drawn) [compound 3, 2-(6-amino-4-chloro-2-difluoromethylbenzimidazol-1-yl)-4-(2-hydroxymethylpyrrolidin-1-yl)-6-morpholino-1,3,5-triazine] | –
10 | 70 | 195 to 198 °C | – | OCC1CCCN1c1cc(N2CCOCC2)nc(-n2c(C(F)F)nc3c(O)cccc32)n1 (stereo not drawn) [compound 1, 2-(2-difluoromethyl-4-hydroxybenzimidazol-1-yl)-4-(2-hydroxymethylpyrrolidin-1-yl)-6-morpholinopyrimidine] | –
